The results in this text go back to US9078831B2, “Cosmetic treatment method using a compound that can be condensed in situ and a UV-radiation-filtering agent” (L'Oreal, priority 2009, dated 2015).

Assay [1] in a line: Persistence towards water (water resistance, SPF before and after baths) in vivo. Also noted: species or system volunteers. As to conditions: APTES layer under Example 2, in words. As for the experimental part:
(§1) The screening effectiveness and the persistence towards water of a solution of UV screening agents, applied to a condensed deposited layer of APTES, in comparison with a solution deposited on bare skin, are evaluated and compared at different concentrations. The UV screening agents tested are Phenylbenzimidazole Sulfonic Acid and Terephthalylidene Dicamphor Sulfonic Acid.
(§2) The studies were carried out on 5 volunteers of phototype I, II or III. The studies targeted exclusively at determining the screening effectiveness took place over 2 consecutive days, when 3 days were necessary for measurements of persistence towards water. On the first day, the screening formulation is applied at 2 mg per cm^2 on bare skin or on a condensed deposited layer of APTES. The volunteers are subsequently exposed to ultraviolet radiation. Erythema is read and the SPF is defined 24 h later. In the case of a test of persistence towards water, the same solutions or pairs of solutions are applied on the second day. The volunteers are immersed in 2 consecutive baths of water, each of 20 minutes, Wore being again exposed to UV radiation. The post-bath SPF is determined during the third test day. The water resistance (WR) is defined as: […]
The water resistance of the 12% solution of UV screening agents was also evaluated in vivo, with and without APTES. […]

A short description of assay [2]: Screening effectiveness (SPF) in vivo. Also noted: species or system volunteers. The following applies: spread over a deposited layer of APTES versus bare skin; 2 mg per cm^2; erythema read 24 h later. On the procedure: as §1
as §2, with “day.” for “day. The water resistance (WR) is defined as:”
The SPF values of the 8% and 12% solutions of UV screening agents are measured, which measurements are taken after spreading over bare skin or over deposited layers more or less concentrated in APTES. […]

For `CCO[Si](CCCN)(OCC)OCC` [APTES, γ-aminopropyltriethoxysilane], the “resistance to water of the UV screening agents” value in assay [1] is given as “significantly increase the resistance to water”. Besides, in assay [2], the SPF in vivo entry is recorded as “SPF increases in proportion as the amount of APTES spread beforehand over the skin increases”.
